This note sets out measurements from US6794400B2, “4-substituted-1-(arylmethylidene)thiosemicarbazide, 4-substituted-1-(arylcarbonyl)thiosemicarbazide and analogs as activators of caspases and inducers of apoptosis and the use thereof” (Cytovia, Inc., priority 2001, dated 2004).

One assay deals with T47-D. Put plainly: Cell proliferation assay (CellTiter 96 AQUEOUS One) GI50, T47-D. In kind it is cell-based. The following applies: Homo sapiens, T47D; T47-D cells, 48 h. The protocol: (§1) All the cell lines were grown according to the conditions recommended by American Type Culture Collection. An aliquot of 90 μL of cells (2.2×10^4 cells/mL) was added to a well of a 96-well microtiter plate containing 10 μL of a 10% DMSO in RPMI-1640 media solution containing 1 nM to 100 μM of 4-(bicyclo[2.2.1]hept-5-en-2-yl)-1-(pyridin-2-ylmethylidene)thiosemicarbazide (0.1 nM to 10 μM final). An aliquot of 90 μL of cells was added to a well of a 96-well microtiter plate containing 10 μL of a 10% DMSO in RPMI-1640 media solution without compound as the control sample for maximal cell proliferation (AMax). The samples were mixed by agitation and then incubated at 37° C. for 48 h in a 5% CO2-95% humidity incubator. After incubation, the samples were removed from the incubator and 20 μL of CellTiter 96 AQUEOUS One Solution Cell Proliferation™ reagent (Promega) was added. […] Using an absorbance plate reader (Model 1420 Wallac Instruments), an initial reading (T=0) was made approximately 1-2 min after addition of the solution, employing absorbance at 490 nm. This determines the possible background absorbance of the test compounds. No absorbance for 4-(bicyclo[2.2.1]hept-5-en-2-yl)-1-(pyridin-2-ylmethylidene)thiosemicarbazide was found at 490 nm. After the 2-4 h incubation, the samples were read for absorbance as above (ATest). […]

For the next assay, the system named is DLD-1. Put plainly: Cell proliferation assay GI50, DLD-1. The following applies: Homo sapiens; DLD-1 cells, 48 h. In kind it is cell-based. On the procedure: as §1
For a further assay, the system named is SK-Br-3. Put plainly: Cell proliferation assay GI50, SK-Br-3. In kind it is cell-based. The conditions noted are these: Homo sapiens; SK-Br-3 cells, 48 h. The protocol:
as §1

For another assay, the system named is ZR-75-1. Put plainly: Caspase cascade activation (N-(Ac-DEVD)-N'-ethoxycarbonyl-R110 fluorogenic substrate) in ZR-75-1 cells. The following applies: 48 h incubation; for Caspase activity Ratio (net RFU of test compound to control): 0.016 to 10 μM final. In kind it is cell-based, human. The protocol: (§2) Human breast cancer cell lines T47D and ZR-75-1 were grown according to media component mixtures designated by American Type Culture Collection+10% FCS (Invitrogen Corporation), in a 5% CO2-95% humidity incubator at 37° C. T-47D and ZR-75-1 cells were maintained at a cell density between 50 and 80% confluency at a cell density of 0.1 to 0.6×10^6 cells/mL. Cells were harvested at 600×g and resuspended at 0.65×10^6 cells/mL into appropriate media+10% FCS. An aliquot of 45 μL of cells was added to a well of a 96-well microtiter plate containing 2.5 μL of a 10% DMSO in RPMI-1640 media solution containing 0.16 to 100 μM of 4-(bicyclo[2.2.1]hept-5-en-2-yl)-1-(pyridin-2-ylmethylidene)thiosemicarbazide or other test compound (0.016 to 10 μM final). An aliquot of 22.5 μL of cells was added to a well of a 384-well microtiter plate containing 2.5 μL of a 10% DMSO in RPMI-1640 media solution without test compound as the control sample. The samples were mixed by agitation and then incubated at 37° C. for 48 h in a 5% CO2-95% humidity incubator. After incubation, the samples were removed from the incubator and 25 μL of a solution containing 14 μM of N-(Ac-DEVD)-N′-ethoxycarbonyl-R110 (SEQ ID NO:1) fluorogenic substrate (Maxim Pharmaceuticals, Inc.; WO99/18856), 20% sucrose (Sigma), 20 mM DTT (Sigma), 200 mM NaCl (Sigma), 40 mM Na PIPES buffer pH 7.2 (Sigma), and 500 μg/ml lysolecithin (Calbiochem) was added. The samples were mixed by agitation and incubated at room temperature. Using a fluorescent plate reader (Model SpectraMax Gemini, Molecular Devices), an initial reading (T=0) was made approximately 1-2 min after addition of the substrate solution, employing excitation at 485 nm and emission at 530 nm, to determine the background fluorescence of the control sample. After the 3 h incubation, the samples were read for fluorescence as above (T=3 h).
(§3) The Relative Fluorescence Unit values (RFU) were used to calculate the sample readings as follows:
(§4) RFU(T=3 h)−Control RFU(T=0)=Net RFU(T=3 h)
(§5) The activity of caspase cascade activation was determined by the ratio of the net RFU value for 4-(bicyclo[2.2.1]hept-5-en-2-yl)-1-(pyridin-2-ylmethylidene)thiosemicarbazide or other test compound to that of control samples. The EC50 (nM) was determined by a sigmoidal dose-response calculation (Prism 2.0, GraphPad Software Inc.).

The test system of the next assay is P388/ADR. Put plainly: Cell proliferation assay GI50, drug resistant P388/ADR. In kind it is cell-based. The following applies: Mus musculus; P388/ADR (drug resistant) cells. On the procedure:
as §1

Another assay relates to NCI-H23. Put plainly: Cell proliferation assay GI50, NCI-H23. The following applies: Homo sapiens; NCI-H23 cells, 48 h. In kind it is cell-based. On the procedure:
as §1

A further assay relates to PC-3. Put plainly: Cell proliferation assay GI50, PC-3. In kind it is cell-based. The following applies: Homo sapiens; PC-3 cells, 48 h. The protocol:
as §1

A further assay relates to T-47D. Put plainly: Caspase cascade activation (N-(Ac-DEVD)-N'-ethoxycarbonyl-R110 fluorogenic substrate) in T-47D cells. In kind it is cell-based, human. The following applies: 48 h incubation; for Caspase activity Ratio (net RFU of test compound to control): 0.016 to 10 μM final; for EC50: Homo sapiens, T47D, read-out: Caspase potency EC50. On the procedure:
as §2, §3, §4, §5

Another assay deals with MCF-7. Put plainly: Cell proliferation assay GI50, MCF-7. In kind it is cell-based. The following applies: Homo sapiens, MCF7; MCF-7 cells, 48 h. On the procedure: as §1
The next assay deals with HeLa. Put plainly: Cell proliferation assay GI50, HeLa. In kind it is cell-based. The conditions noted are these: Homo sapiens; HeLa cells, 48 h. The protocol: as §1
For the next assay, the system named is K562. Put plainly: Cell proliferation assay GI50, K562. The conditions noted are these: Homo sapiens; K562 cells, 48 h. In kind it is cell-based. On the procedure:
as §1

A further assay deals with MDA-MB-231. Put plainly: Cell proliferation assay GI50, MDA-MB-231. In kind it is cell-based. The following applies: Homo sapiens; MDA-MB-231 cells, 48 h. On the procedure:
as §1

Another assay relates to P388. Put plainly: Cell proliferation assay GI50, drug sensitive P388. The following applies: Mus musculus; P388 (drug sensitive) cells. In kind it is cell-based. On the procedure:
as §1

For `S=C(NN=Cc1ccccn1)NC1CC2C=CC1C2` (stereo not shown) [Example 16, 4-(Bicyclo[2.2.1]hept-5-en-2-yl)-1-(pyridin-2-ylmethylidene)thiosemicarbazide], the GI50 in the assay on T47-D amounted to 5 nM; with DLD-1, 90 nM; in the assay on SK-Br-3, 5 nM; with P388/ADR, 20 nM; with NCI-H23, 30 nM; with PC-3 it was 30 nM. Further, the GI50 in the assay with MCF-7 amounted to 7 nM; in the assay with HeLa it was 60 nM; with K562 it was 50 nM; in the assay with MDA-MB-231, 30 nM; in the assay with P388 it was 20 nM. Also, the “Caspase activity Ratio (net RFU of test compound to control)” value with ZR-75-1 came out at 3.0; in the assay with T-47D, 3.5. The EC50 in the assay with ZR-75-1 (Homo sapiens, read-out: Caspase potency EC50) is 862 nM; with T-47D it was 360 nM.

For the compound `Cc1cccc(C=NNC(=S)NC2CC3C=CC2C3)n1` (stereo not shown) [Example 17, 4-(Bicyclo[2.2.1]hept-5-en-2-yl)-1-(6-methyl-pyridin-2-ylmethylidene)thiosemicarbazide], the GI50 in the assay with T47-D is 1000 nM; in the assay with DLD-1, 1700 nM; in the assay on SK-Br-3 it was 750 nM; in the assay with NCI-H23, 3000 nM; in the assay with MCF-7, 300 nM; in the assay on K562, 3000 nM. Further, the “Caspase potency EC50” value with ZR-75-1 is “INACTIVE”. Moreover, the “Caspase activity Ratio (net RFU of test compound to control)” value turned out to be 2.5 with ZR-75-1 and 3.3 in the assay with T-47D. The half-maximal effective concentration (EC50) in the assay on T-47D was 866 nM.

The term GI50 denotes the concentration giving 50% growth inhibition. A high value points to less potent growth inhibition. A word on the EC50: it is the midpoint of the concentration-response curve.
